Results: ChEMBL document CHEMBL4033685, “C21-steroidal pregnane sapogenins and their derivatives as anti-inflammatory agents” (Bioorg Med Chem, 2017)
pEC50: −log10 of the molar value. The source made the active and inactive calls. The rule behind the calls is not given here.

How the values were obtained:
Homo sapiens = species on record: Homo sapiens; test: Inhibition of TNFalpha-stimulated NF-kB signaling pathway (unknown origin) expressed in human AD293 cells after 4 hrs by luciferase reporter gene assay; assay type: cell-based
Toll-like receptor 4 [1] = target: T1, Toll-like receptor 4 (Homo sapiens, UniProt O00206); test: Antagonist activity at TLR4 in human THP1 cells assessed as increase in LPS-stimulated NFkappaB p65 phosphorylation at 10 uM after 3 hrs by Western blot analysis; assay type: cell-based
T1 sequence (O00206 whole entry): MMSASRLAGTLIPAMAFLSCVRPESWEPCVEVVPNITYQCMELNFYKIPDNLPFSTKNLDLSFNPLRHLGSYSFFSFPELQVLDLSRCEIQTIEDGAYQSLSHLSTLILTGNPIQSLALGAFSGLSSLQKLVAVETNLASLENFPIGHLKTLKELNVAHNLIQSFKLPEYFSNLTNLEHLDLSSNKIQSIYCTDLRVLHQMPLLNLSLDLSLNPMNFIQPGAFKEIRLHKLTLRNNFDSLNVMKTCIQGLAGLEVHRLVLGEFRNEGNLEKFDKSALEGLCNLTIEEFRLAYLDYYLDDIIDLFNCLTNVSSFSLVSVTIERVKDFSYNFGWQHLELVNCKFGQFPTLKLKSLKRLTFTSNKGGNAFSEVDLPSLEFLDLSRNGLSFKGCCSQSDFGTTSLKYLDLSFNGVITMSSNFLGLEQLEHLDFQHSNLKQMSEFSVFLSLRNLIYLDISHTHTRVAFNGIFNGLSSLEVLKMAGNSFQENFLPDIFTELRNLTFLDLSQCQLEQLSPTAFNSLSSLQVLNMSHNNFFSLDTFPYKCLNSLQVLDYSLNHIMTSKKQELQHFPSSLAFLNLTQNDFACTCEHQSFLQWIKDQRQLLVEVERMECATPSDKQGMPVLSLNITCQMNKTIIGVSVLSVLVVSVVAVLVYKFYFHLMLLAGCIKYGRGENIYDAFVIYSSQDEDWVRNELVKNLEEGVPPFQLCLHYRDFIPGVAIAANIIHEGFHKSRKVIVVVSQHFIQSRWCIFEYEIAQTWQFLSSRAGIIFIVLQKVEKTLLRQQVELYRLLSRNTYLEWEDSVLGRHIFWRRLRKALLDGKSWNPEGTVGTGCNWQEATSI

AD293 [2] = test: Upregulation of IKKalpha protein expression in human AD293 cells at 10 uM after 3 hrs by Western blot analysis; assay type: functional, cell-based
[3] = target: Transcription factor p65 (Homo sapiens) (UniProt Q04206); test: Inhibition of TNFalpha-stimulated NF-kB p65 activation (unknown origin) expressed in human AD293 cells assessed as nuclear translocation of p65 at 10 uM after 3 hrs by confocal microscopic method; assay type: cell-based
Sequence of Transcription factor p65 (Homo sapiens) (Q04206 whole entry): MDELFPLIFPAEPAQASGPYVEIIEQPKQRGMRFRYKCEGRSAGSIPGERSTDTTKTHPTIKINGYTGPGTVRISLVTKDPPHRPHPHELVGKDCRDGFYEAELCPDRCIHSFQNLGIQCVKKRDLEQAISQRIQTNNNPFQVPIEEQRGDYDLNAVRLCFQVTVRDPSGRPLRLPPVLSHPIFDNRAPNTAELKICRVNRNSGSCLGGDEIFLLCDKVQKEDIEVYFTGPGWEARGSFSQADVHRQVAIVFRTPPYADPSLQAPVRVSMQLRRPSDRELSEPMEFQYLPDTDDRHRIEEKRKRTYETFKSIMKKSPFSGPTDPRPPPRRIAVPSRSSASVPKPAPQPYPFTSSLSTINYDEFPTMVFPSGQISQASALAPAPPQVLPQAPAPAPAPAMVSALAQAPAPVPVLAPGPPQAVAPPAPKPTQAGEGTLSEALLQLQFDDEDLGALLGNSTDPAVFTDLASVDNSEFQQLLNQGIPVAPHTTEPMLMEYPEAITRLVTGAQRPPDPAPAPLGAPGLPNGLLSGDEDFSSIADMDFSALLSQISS

AD293 [4] = test: Upregulation of IKKalpha protein expression in TNFalpha-stimulated human AD293 cells at 10 uM after 3 hrs by Western blot analysis; assay type: functional, cell-based
[5] = target: Toll-like receptor 2 (Homo sapiens) (UniProt O60603); test: Antagonist activity at TLR2 in human THP1 cells assessed as inhibition of PGN-stimulated TNFalpha level at 10 uM by bead based immunoassay; assay type: cell-based
Sequence of Toll-like receptor 2 (Homo sapiens) (O60603 whole entry): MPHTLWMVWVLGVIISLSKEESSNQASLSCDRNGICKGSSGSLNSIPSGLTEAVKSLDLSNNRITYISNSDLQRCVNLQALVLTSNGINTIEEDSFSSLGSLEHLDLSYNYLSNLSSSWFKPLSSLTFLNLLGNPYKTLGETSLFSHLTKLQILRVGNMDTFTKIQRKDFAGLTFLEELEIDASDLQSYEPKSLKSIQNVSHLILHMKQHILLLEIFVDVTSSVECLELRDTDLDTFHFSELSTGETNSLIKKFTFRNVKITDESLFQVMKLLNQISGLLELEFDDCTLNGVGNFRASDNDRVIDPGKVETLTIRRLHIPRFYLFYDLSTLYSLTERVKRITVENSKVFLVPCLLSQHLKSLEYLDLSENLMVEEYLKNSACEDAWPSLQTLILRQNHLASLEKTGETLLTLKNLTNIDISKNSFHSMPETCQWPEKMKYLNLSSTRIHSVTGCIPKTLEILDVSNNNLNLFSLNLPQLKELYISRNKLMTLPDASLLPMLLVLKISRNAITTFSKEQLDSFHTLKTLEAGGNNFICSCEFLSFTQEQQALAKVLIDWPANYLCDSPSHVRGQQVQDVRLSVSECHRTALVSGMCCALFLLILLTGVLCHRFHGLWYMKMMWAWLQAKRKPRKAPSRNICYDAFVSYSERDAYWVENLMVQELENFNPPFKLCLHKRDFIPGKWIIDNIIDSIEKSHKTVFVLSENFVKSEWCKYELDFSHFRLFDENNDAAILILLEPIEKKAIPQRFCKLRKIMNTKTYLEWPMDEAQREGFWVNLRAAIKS

THP-1 [6] = test: Upregulation of IKKalpha protein expression in human THP1 cells at 10 uM after 3 hrs by Western blot analysis; assay type: functional, cell-based
Toll-like receptor 4 [7] = target: T1, Toll-like receptor 4; test: Antagonist activity at TLR4 in human THP1 cells assessed as inhibition of LPS-stimulated TNFalpha level at 10 uM by bead based immunoassay; assay type: cell-based
[8] = target: Toll-like receptor 3 (Homo sapiens) (UniProt O15455); test: Antagonist activity at TLR3 in human THP1 cells assessed as inhibition of poly IC-stimulated TNFalpha level at 10 uM by bead based immunoassay; assay type: cell-based
Sequence of Toll-like receptor 3 (Homo sapiens) (O15455 whole entry): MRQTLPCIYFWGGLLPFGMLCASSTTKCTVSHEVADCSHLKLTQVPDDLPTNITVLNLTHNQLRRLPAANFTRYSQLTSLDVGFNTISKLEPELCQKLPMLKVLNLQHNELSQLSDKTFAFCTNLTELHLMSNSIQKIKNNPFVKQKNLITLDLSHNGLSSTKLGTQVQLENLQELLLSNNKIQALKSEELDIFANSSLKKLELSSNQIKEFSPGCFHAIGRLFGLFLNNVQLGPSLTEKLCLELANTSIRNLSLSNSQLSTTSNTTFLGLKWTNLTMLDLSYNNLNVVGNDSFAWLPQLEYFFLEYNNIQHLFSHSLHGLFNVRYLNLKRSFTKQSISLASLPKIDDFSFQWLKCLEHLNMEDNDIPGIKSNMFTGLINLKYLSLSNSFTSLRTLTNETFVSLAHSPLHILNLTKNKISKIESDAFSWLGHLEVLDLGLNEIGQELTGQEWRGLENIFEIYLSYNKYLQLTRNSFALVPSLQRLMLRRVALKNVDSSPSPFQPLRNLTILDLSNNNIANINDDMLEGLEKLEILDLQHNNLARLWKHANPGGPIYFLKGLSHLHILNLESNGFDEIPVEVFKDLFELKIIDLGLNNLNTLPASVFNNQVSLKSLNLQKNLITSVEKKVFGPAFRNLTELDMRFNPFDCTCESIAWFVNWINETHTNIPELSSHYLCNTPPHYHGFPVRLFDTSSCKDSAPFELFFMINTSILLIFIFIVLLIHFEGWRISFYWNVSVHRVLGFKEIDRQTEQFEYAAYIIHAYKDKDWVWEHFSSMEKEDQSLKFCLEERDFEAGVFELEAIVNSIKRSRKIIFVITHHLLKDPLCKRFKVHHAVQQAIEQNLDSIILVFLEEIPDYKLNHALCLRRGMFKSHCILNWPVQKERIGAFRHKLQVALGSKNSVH

[9] = target: Toll-like receptor 3 (Homo sapiens) (UniProt O15455); test: Antagonist activity at TLR3 in human THP1 cells assessed as inhibition of poly IC-stimulated IL-1beta level at 10 uM by bead based immunoassay; assay type: cell-based
[10] = target: Toll-like receptor 2 (Homo sapiens) (UniProt O60603); test: Antagonist activity at TLR2 in human THP1 cells assessed as inhibition of PGN-stimulated IL-1beta level at 10 uM by bead based immunoassay; assay type: cell-based
Toll-like receptor 4 [11] = target: T1, Toll-like receptor 4; test: Antagonist activity at TLR4 in human THP1 cells assessed as inhibition of LPS-stimulated NF-kB non-canonical signaling pathway by measuring decrease in p100/p52 phosphorylation at 10 uM after 3 hrs by Western blot analysis; assay type: cell-based
THP-1 [12] = test: Effect on RelB protein expression in human THP1 cells at 10 uM after 3 hrs by Western blot analysis; assay type: functional, cell-based
Toll-like receptor 4 [13] = target: T1, Toll-like receptor 4; test: Antagonist activity at TLR4 in human THP1 cells assessed as inhibition of LPS-stimulated NF-kB non-canonical signaling pathway by measuring decrease in RelB expression at 10 uM after 3 hrs by Western blot analysis; assay type: cell-based
Toll-like receptor 4 [14] = target: T1, Toll-like receptor 4; test: Antagonist activity at TLR4 in human THP1 cells harboring human TRAF6 assessed as inhibition of LPS-stimulated TNFalpha level at 10 uM by bead based immunoassay; assay type: cell-based
Toll-like receptor 4 [15] = target: T1, Toll-like receptor 4; test: Antagonist activity at TLR4 in human THP1 cells assessed as inhibition of LPS-stimulated IL-6 level at 10 uM by bead based immunoassay; assay type: cell-based
Toll-like receptor 4 [16] = target: T1, Toll-like receptor 4; test: Antagonist activity at TLR4 (unknown origin) expressed in human AD293 cells assessed as inhibition of LPS/ATP-stimulated TLR4/NF-kB signaling pathway after 16 hrs by luciferase reporter gene assay; assay type: cell-based
[17] = target: T2, NF-kappa-B inhibitor alpha (Homo sapiens) (UniProt P25963); test: Inhibition of TNFalpha-stimulated IkBalpha phosphorylation in human AD293 cells at 10 uM after 3 hrs by Western blot analysis; assay type: cell-based
T2 sequence (whole entry): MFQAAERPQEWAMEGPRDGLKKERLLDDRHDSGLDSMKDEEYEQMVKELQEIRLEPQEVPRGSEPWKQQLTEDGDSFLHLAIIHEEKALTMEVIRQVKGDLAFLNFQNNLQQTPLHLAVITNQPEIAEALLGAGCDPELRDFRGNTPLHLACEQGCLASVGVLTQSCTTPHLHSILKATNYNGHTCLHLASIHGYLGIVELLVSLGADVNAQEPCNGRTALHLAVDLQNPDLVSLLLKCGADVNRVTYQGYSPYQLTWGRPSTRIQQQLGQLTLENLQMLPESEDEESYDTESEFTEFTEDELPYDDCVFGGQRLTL

AD293 [18] = test: Cytotoxicity against human AD293 cells assessed as reduction in cell viability after 24 hrs by methylene blue dye based spectrophotometric method; conditions: ad293, 24 h
[19] = target: T3, Nuclear factor NF-kappa-B p100 subunit (Homo sapiens) (UniProt Q00653); test: Effect on p100/p52 phosphorylation in human THP1 cells at 10 uM after 3 hrs by Western blot analysis; assay type: cell-based
T3 sequence (whole entry): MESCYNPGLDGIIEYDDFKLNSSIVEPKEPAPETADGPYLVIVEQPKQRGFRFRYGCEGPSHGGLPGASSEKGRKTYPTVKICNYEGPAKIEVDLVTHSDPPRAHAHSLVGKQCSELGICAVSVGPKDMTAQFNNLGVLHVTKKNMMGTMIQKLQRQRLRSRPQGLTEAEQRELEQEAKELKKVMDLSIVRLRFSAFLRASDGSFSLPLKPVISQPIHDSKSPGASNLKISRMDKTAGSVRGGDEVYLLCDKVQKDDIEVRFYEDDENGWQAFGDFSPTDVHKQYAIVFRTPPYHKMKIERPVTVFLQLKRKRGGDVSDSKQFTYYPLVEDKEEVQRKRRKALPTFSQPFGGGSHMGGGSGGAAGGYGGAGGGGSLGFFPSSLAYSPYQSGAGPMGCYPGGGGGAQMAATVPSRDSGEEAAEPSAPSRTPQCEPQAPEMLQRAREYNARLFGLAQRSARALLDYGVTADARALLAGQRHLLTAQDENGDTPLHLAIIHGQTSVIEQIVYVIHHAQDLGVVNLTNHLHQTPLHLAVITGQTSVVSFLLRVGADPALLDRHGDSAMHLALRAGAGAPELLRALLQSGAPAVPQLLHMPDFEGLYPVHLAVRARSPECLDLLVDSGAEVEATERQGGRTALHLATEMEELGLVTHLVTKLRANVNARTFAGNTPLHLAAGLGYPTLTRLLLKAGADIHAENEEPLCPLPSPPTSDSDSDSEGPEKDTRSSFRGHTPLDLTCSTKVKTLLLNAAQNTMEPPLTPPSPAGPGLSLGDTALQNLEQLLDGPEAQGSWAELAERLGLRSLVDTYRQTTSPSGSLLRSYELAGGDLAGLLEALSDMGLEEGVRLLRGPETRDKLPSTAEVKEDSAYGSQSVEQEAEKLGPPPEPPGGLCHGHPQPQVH

[20] = target: T3, Nuclear factor NF-kappa-B p100 subunit (Homo sapiens); test: Effect on p100 phosphorylation in human THP1 cells at 10 uM after 3 hrs by Western blot analysis; assay type: cell-based
THP-1 [21] = test: Upregulation of IKKalpha protein expression in LPS-stimulated human THP1 cells at 10 uM after 3 hrs by Western blot analysis; assay type: functional, cell-based
Toll-like receptor 4 [22] = target: T1, Toll-like receptor 4; test: Antagonist activity at TLR4 in human THP1 cells assessed as inhibition of LPS-stimulated NF-kB non-canonical signaling pathway by measuring decrease in p100 phosphorylation at 10 uM after 3 hrs by Western blot analysis; assay type: cell-based

In the case of `COc1ccc(/C=C/C(=O)O[C@H]2CC[C@@]3(C)C(=CC[C@]4(O)[C@@H]3C[C@@H](OC(=O)/C=C(\C)C(C)C)[C@@]3(C)[C@]4(O)CC[C@@]3(O)C(C)=O)C2)cc1`, the EC10 (Homo sapiens) was over 10 µM, the inhibition (Toll-like receptor 4 [1]) was “Active” and the Activity (AD293 [2]) was “Active”. The inhibition [3] was “inactive”, the Activity (AD293 [4]) was “Active” and the inhibition [5] was “Active”. The Activity (THP-1 [6]) was “Active”, the inhibition (Toll-like receptor 4 [7]) was “Active” and the inhibition [8] was “Active”. The inhibition [9] was “Active”, the inhibition [10] was “Active” and the inhibition (Toll-like receptor 4 [11]) was “inactive”. The Activity (THP-1 [12]) was “inactive”, the inhibition (Toll-like receptor 4 [13]) was “inactive” and the inhibition (Toll-like receptor 4 [14]) was “inactive”. For the same compound, the inhibition (Toll-like receptor 4 [15]) was “Active”, the pEC50 (Toll-like receptor 4 [16]) was 5.40 and the inhibition [17] was “inactive”. For the same compound, the CC10 (AD293 [18]) was over 10 µM, the Activity [19] was “inactive” and the Activity [20] was “inactive”. For the same compound, the Activity (THP-1 [21]) was “Active” and the inhibition (Toll-like receptor 4 [22]) was “inactive”.
For `CC(=O)[C@]1(O)CC[C@@]2(O)[C@]1(C)[C@H](OC(=O)c1ccc(O)cc1)C[C@@H]1[C@@]3(C)CC[C@H](OC(=O)CCl)CC3=CC[C@]12O`, the EC10 (Homo sapiens) was over 10 µM, the inhibition (Toll-like receptor 4 [1]) was “inactive” and the Activity (AD293 [2]) was “Active”. For the same compound, the inhibition [3] was “inactive”, the Activity (AD293 [4]) was “Active” and the inhibition [5] was “Active”. For the same compound, the Activity (THP-1 [6]) was “Active”, the inhibition (Toll-like receptor 4 [7]) was “Active” and the inhibition [8] was “Active”. For the same compound, the inhibition [9] was “Active”, the inhibition [10] was “Active” and the inhibition (Toll-like receptor 4 [11]) was “inactive”. The Activity (THP-1 [12]) was “inactive”, the inhibition (Toll-like receptor 4 [13]) was “inactive” and the inhibition (Toll-like receptor 4 [14]) was “inactive”. The inhibition (Toll-like receptor 4 [15]) was “Active”, the pEC50 (Toll-like receptor 4 [16]) was 5.49 and the inhibition [17] was “inactive”. The CC10 (AD293 [18]) was over 10 µM, the Activity [19] was “inactive” and the Activity [20] was “inactive”. The Activity (THP-1 [21]) was “Active” and the inhibition (Toll-like receptor 4 [22]) was “inactive”.
